Measured values published in patent US7101872B2, “Farnesyl dibenzodiazepinone, and processes for its production” (Ecopia BioSciences, Inc., priority 2003, dated 2006).
Values after ≈ are worked out from the molar mass of the structure shown.

How the values were obtained:
Type in all cases: cell-based
[1] = system: Bacillus subtilis ATCC 23857; assay: MIC broth microdilution; conditions: ATCC23857, 35° C., 24 hrs
Protocol: (§1) The MIC determination of ECO-04601 against bacteria strains (Bacillus subtilis—ATCC 23857; Micrococcus luteus—ATCC 9341) was performed using broth microdilution assay (Methods for Dilution Antimicrobial Susceptibility Tests for Bacteria That Grow Aerobically; Approved Standard-Fifth Edition. NCCLS document M7-A5 (ISBN 1-56238-394-9). NCCLS, 940 West Valley Road, Suite 1400, Wayne, Pa. 19087-1898 USA.). Test compound preparation: […] The first dilution (3.2 mg/ml) was prepared by resuspending 0.5 mg of each test article in 156.25 μl of DMSO. […] Assay plates were incubated at 35° C. for 24 hrs.

[2] = system: Micrococcus luteus ATCC 9341; assay: MIC broth microdilution; conditions: ATCC9341, 35° C., 24 hrs
Protocol: as §1

DU-145 = assay: NCI panel SRB growth inhibition; conditions: Homo sapiens, DU-145, Prostate, 48 h
Protocol: (§2) The operation of this unique screen utilizes […] different human tumor cell lines, representing leukemia, melanoma and cancers of the lung, colon, brain, ovary, breast, prostate, and kidney.
(§3) Culture conditions and plating: The human tumor cell lines of the cancer-screening panel were grown in RPMI 1640 medium containing 5% fetal bovine serum and 2 mM L-glutamine. For a typical screening experiment, cells were inoculated into 96 well microtiter plates in 100 μL at plating densities ranging from 5,000 to 40,000 cells/well depending on the doubling time of individual cell lines (Table 5). After cell inoculation, the microtiter plates were incubated at 37° C., 5% CO2, 95% air and 100% relative humidity for 24 h prior to addition of experimental drugs. After 24 h, two plates of each cell line were fixed in situ with TCA, to represent a measurement of the cell population for each cell line at the time of drug addition (Tz). Evaluation of inhibitory activity on cell proliferation: ECO-04601 was provided as a lyophilized powder with an estimated purity of 90+%. The compound was stored at −20° C. until day of use. ECO-04601 was solubilized in dimethyl sulfoxide at 400-fold the desired final maximum test concentration. At the time of drug addition, an aliquot of frozen concentrate was thawed and diluted to twice the desired final maximum test concentration with complete medium containing 50 μg/mL gentamicin. Additional four, 10-fold or Y2 log serial dilutions were made to provide a total of five drug concentrations plus control. Aliquots of 100 μl of these different drug dilutions were added to the appropriate microtiter wells already containing 100 μl of medium, resulting in the required final drug concentrations (8.0×10^−5 M to 8.0×10^−9 M).
(§4) Following drug addition, the plates were incubated for an additional 48 h at 37° C., 5% CO2, 95% air, and 100% relative humidity. For adherent cells, the assay was terminated by the addition of cold TCA. Cells were fixed in situ by the gentle addition of 50 μl of cold 50% (w/v) TCA (final concentration, 10% TCA) and incubated for 60 minutes at 4° C. Supernatants were discarded, and the plates were washed five times with tap water and air-dried. Sulforhodamine B (SRB) solution (100 μl) at 0.4% (w/v) in 1% acetic acid was added to each well, and plates were incubated for 10 minutes at room temperature. After staining, unbound dye was removed by washing five times with 1% acetic acid and the plates were air-dried. Bound stain was subsequently solubilized with 10 mM trizma base, and the absorbance was read on an automated plate reader at a wavelength of 515 nm. For suspension cells, the methodology was the same except that the assay was terminated by fixing settled cells at the bottom of the wells by gently adding 50 μl of 80% TCA (final concentration, 16% TCA).
(§5) The growth inhibitory activity of ECO-04601 was measured by NCI utilizing the GI50 value, rather than the classical IC50 value.

SK-MEL-2 = assay: NCI panel SRB growth inhibition; conditions: Homo sapiens, SK-MEL-2, Melanoma, 48 h
Protocol: as §2, §3, §4, §5

MDA-MB-231/ATCC = assay: NCI panel SRB growth inhibition; conditions: Homo sapiens, Breast, 48 h
Protocol: as §2, §3, §4, §5

SK-OV-3 = assay: NCI panel SRB growth inhibition; conditions: Homo sapiens, SK-OV-3, Ovarian, 48 h
Protocol: as §2, §3, §4, §5

U251 = assay: NCI panel SRB growth inhibition; conditions: Homo sapiens, U-251, U251, CNS, 48 h
Protocol: as §2, §3, §4, §5

SNB-19 = assay: NCI panel SRB growth inhibition; conditions: Homo sapiens, SNB-19, CNS, 48 h
Protocol: as §2, §3, §4, §5

HOP-62 = assay: NCI panel SRB growth inhibition; conditions: Homo sapiens, HOP-62, Non-Small Cell Lung, 48 h
Protocol: as §2, §3, §4, §5

EKVX = assay: NCI panel SRB growth inhibition; conditions: Homo sapiens, Non-Small Cell Lung, 48 h
Protocol: as §2, §3, §4, §5

COLO 205 = assay: NCI panel SRB growth inhibition; conditions: Homo sapiens, COLO 205, Colon, 48 h
Protocol: as §2, §3, §4, §5

UACC-62 = assay: NCI panel SRB growth inhibition; conditions: Homo sapiens, UACC-62, Melanoma, 48 h
Protocol: as §2, §3, §4, §5

K-562 = assay: NCI panel SRB growth inhibition; conditions: Homo sapiens, K562, K-562, Leukemia, 48 h
Protocol: as §2, §3, §4, §5

T-47D = assay: NCI panel SRB growth inhibition; conditions: Homo sapiens, T47D, Breast, 48 h
Protocol: as §2, §3, §4, §5

SF-268 = assay: NCI panel SRB growth inhibition; conditions: Homo sapiens, SF-268, CNS, 48 h
Protocol: as §2, §3, §4, §5

M14 = assay: NCI panel SRB growth inhibition; conditions: Homo sapiens, M14, Melanoma, 48 h
Protocol: as §2, §3, §4, §5

IGR-OV1 = assay: NCI panel SRB growth inhibition; conditions: Homo sapiens, IGROV-1, IGR-OV1, Ovarian, 48 h
Protocol: as §2, §3, §4, §5

NCI-H522 = assay: NCI panel SRB growth inhibition; conditions: Homo sapiens, NCI-H522, Non-Small Cell Lung, 48 h
Protocol: as §2, §3, §4, §5

HS 578T = assay: NCI panel SRB growth inhibition; conditions: Homo sapiens, Breast, 48 h
Protocol: as §2, §3, §4, §5

SW-620 = assay: NCI panel SRB growth inhibition; conditions: Homo sapiens, SW-620, Colon, 48 h
Protocol: as §2, §3, §4, §5

MIC [1]: 12.5 µg/mL (≈ 27 µM) | MIC [2]: 6.25 µg/mL (≈ 13.5 µM)
Compound: CC(C)=CCC/C(C)=C/CC/C(C)=C/CN1C(=O)c2cccc(O)c2Nc2c(O)cc(O)cc21 [ECO-04601, 10-farnesyl-4,6,8-trihydroxy-dibenzodiazepin-11-one]
GI50 (DU-145): 3.56 µM | GI50 (SK-MEL-2): 25 µM | GI50 (MDA-MB-231/ATCC): 2.72 µM | GI50 (SK-OV-3): 4 µM | GI50 (U251): 2.19 µM | GI50 (SNB-19): 2.9 µM | GI50 (HOP-62): 8.29 µM | GI50 (EKVX): 0.23 µM | GI50 (COLO 205): 12.7 µM | GI50 (UACC-62): 1.55 µM | GI50 (K-562): 1.43 µM | GI50 (T-47D): 0.77 µM | GI50 (SF-268): 4.94 µM | GI50 (M14): 4.57 µM | GI50 (IGR-OV1): 3.11 µM | GI50 (NCI-H522): 3.44 µM | GI50 (HS 578T): 2.76 µM | GI50 (SW-620): 2.72 µM
